Values of other authors, collected in patent US20040115234A1, “Cosmetic composition” (priority 2002, published 2004).

Legend:
eyelashes = details: Latanoprost at 0.005% by weight; clinical studies over up to 12 months; % of the subjects tested

solubility in water: limited solubility in water
SMILES: CC(C)OC(=O)CCC/C=C\C[C@@H]1[C@@H](CC[C@@H](O)CCc2ccccc2)[C@H](O)C[C@@H]1O [Latanoprost, isopropyl-(Z)-7[(1R, 2R, 3R, 5S)3,5-dihydroxy-2-[(3R)-3-hydroxy-5-phenylpentyl]cyclopentyl]-5-heptenoate]
subjects with induced change in color of eyelashes (eyelashes): 16.5%
subjects with induced change in density of eyelashes (eyelashes): 22.2%
subjects with induced change in length of eyelashes (eyelashes): 25.8%
subjects with induced change in thickness of eyelashes (eyelashes): 17.5%
